The numbers were not newly measured in patent US9370164B2, “Breeding, production, processing and use of specialty Cannabis” (Biotech Institute LLC, priority 2013, dated 2016), which cites them from elsewhere.

Like-named read-outs stand apart in the source and are kept apart here.

The conditions of data set [1]: for Pharmacological Action: Bronchodialator: indications: Asthma, Sleep-related breathing disorders; for Pharmacological Action: Anti-inflammatory: indications: Pain, Chron's, Arthritis; for Pharmacological Action: Anti-inflammatory / Pharmacological Action: Immunosuppressive / Pharmacological Action: Neuroprotective: MS; for Pharmacological Action: Sedative: indication: Sleep disorders; for Pharmacological Action: Analgesic / Pharmacological Action: Anti-spasmodic: indications: MS; for Pharmacological Action: Analgesic: Post-operative pain, Migraine, Neuropathic pain, Sciatica; for Pharmacological Action: Antidepressant: indication: Depression; for Pharmacological Action: Anti-epileptic: indication: Epilepsy; for Pharmacological Action: Muscle relaxant: indication: MS; for Pharmacological Action: Anti-spasmodic: Spinal cord injury, Cerebral palsy; for Pharmacological Action: Anxiolytic: indications: Panic Disorder, Social Anxiety Disorder, Generalized Anxiety Disorder, PTSD; for Pharmacological Action: Anti-emetic: indication: CIE; for Pharmacological Action: Intestinal Anti-prokinetic: indication: Diarrhea; for Pharmacological Action: Vasorelaxant: indication: Glaucoma; for Pharmacological Action: Immunosuppressive: indications: Allergies, RA, IBS; for Pharmacological Action: Neuroprotective: indications: Parkinson's, Alzheimer's, Stroke.

For data set [2] the following is noted: for Proposed mechanism, Analgesic: post-operative pain.

As to `CC1=CCC2CC1C2(C)C` (stereo not drawn) [a-pinene], in data set [1], the “Pharmacological Action: Bronchodialator” value is “✓” and the “Pharmacological Action: Anti-inflammatory” value is recorded as “✓”. The “Proposed mechanism, Anti-inflammatory” value in data set [2] was “PGE1”.

On to `C=CC(=C)CCC=C(C)C` [b-myrcene], for which, in data set [1], the “Pharmacological Action: Sedative” value was “✓”, the “Pharmacological Action: Analgesic” value is “✓” and the “Pharmacological Action: Anti-inflammatory” value is reported as “✓”. Moreover, the “Proposed mechanism, Anti-inflammatory” value in data set [2] was “PGE2”.

Turning to `CCCCCc1cc(O)c(C/C=C(\C)CCC=C(C)C)c(O)c1` [CBG], in data set [1], the “Pharmacological Action: Antidepressant” value is “✓”, the “Pharmacological Action: Anti-epileptic” value is “✓”, the “Pharmacological Action: Muscle relaxant” value is reported as “✓” and the “Pharmacological Action: Analgesic” value is given as “✓”. Also, in data set [1], the “Pharmacological Action: Anti-spasmodic” value is recorded as “✓” and the “Pharmacological Action: Anxiolytic” value is recorded as “✓”. In addition, in data set [2], the “Proposed mechanism, Analgesic” value is “(+)TRPA1” and the “Proposed mechanism, Anti-proliferative” value is on record as “(−)TRPM8”. In addition, the “Proposed mechanism, Antidepressant” value in data set [2] (Antidepressant) is “(−)5HT1A”.

As for `CCCCCc1cc(O)c2c(c1)OC(C)(C)[C@@H]1CCC(C)=C[C@@H]21` [THC], in data set [1], the “Pharmacological Action: Anti-emetic” value is “✓”, the “Pharmacological Action: Antidepressant” value was “✓”, the “Pharmacological Action: Intestinal Anti-prokinetic” value is “✓” and the “Pharmacological Action: Anti-epileptic” value is given as “✓”. In data set [1], the “Pharmacological Action: Vasorelaxant” value is “✓”, the “Pharmacological Action: Muscle relaxant” value is “✓”, the “Pharmacological Action: Sedative” value is “✓” and the “Pharmacological Action: Immunosuppressive” value was “✓”. In data set [1], the “Pharmacological Action: Bronchodialator” value is “✓”, the “Pharmacological Action: Analgesic” value was “✓”, the “Pharmacological Action: Anti-spasmodic” value is listed as “✓” and the “Pharmacological Action: Anti-inflammatory” value is given as “✓”. Besides, in data set [1], the “Pharmacological Action: Anxiolytic” value is “✓” and the “Pharmacological Action: Neuroprotective” value is reported as “✓”. The “Pharmacological Action: Appetite Stimulant” value in data set [1] (indications: Anorexia, Cachexia, AIDS wasting) is given as “✓”. In data set [2], the “Proposed mechanism, Anti-inflammatory” value was “(+)PPARg”; the “Proposed mechanism, Anti-proliferative” value is on record as “(−)TRPM8”; the “Proposed mechanism, Vasorelaxant” value was “(+)PPARg”. In data set [2] (Appetite Stimulant), the “Proposed mechanism, Appetite Stimulant” value is “(+)PPARg”.

With `C=C(C)[C@H]1CC=C(C)CC1` [Limonene], in data set [1], the “Pharmacological Action: Antidepressant” value was “✓” and the “Pharmacological Action: Anxiolytic” value is “✓”.

Turning to `CCCCCc1cc(O)c2c(c1)OC(C)(CCC=C(C)C)C=C2` (stereo not drawn) [CBC], in data set [1], the “Pharmacological Action: Analgesic” value is on record as “✓” and the “Pharmacological Action: Anti-inflammatory” value is on record as “✓”.

Consider `CCCc1cc(O)c2c(c1)OC(C)(C)[C@@H]1CCC(C)=C[C@@H]21` [THCV], for which the “Pharmacological Action: Anti-epileptic” value in data set [1] is given as “✓”. Moreover, in data set [2], the “Proposed mechanism, Anti-epileptic” value was “(−)CB1”.

As to `C=CC(C)(O)CCC=C(C)C` (stereo not drawn) [Linalool], in data set [1], the “Pharmacological Action: Anti-epileptic” value is reported as “✓”, the “Pharmacological Action: Sedative” value is listed as “✓”, the “Pharmacological Action: Analgesic” value is “✓” and the “Pharmacological Action: Anxiolytic” value was “✓”. Also, in data set [2], the “Proposed mechanism, Anti-epileptic” value is recorded as “anti-Glu”.

Take `CCCCCc1cc(O)c2c(c1)OC(C)(C)c1ccc(C)cc1-2` [CBN]: in data set [1], the “Pharmacological Action: Sedative” value is recorded as “✓” and the “Pharmacological Action: Analgesic” value is recorded as “✓”.

Turning to `C=C(C)[C@@H]1CCC(C)=C[C@H]1c1c(O)cc(CCCCC)cc1O` [CBD], in data set [1], the “Pharmacological Action: Anti-emetic” value was “✓”, the “Pharmacological Action: Antidepressant” value is recorded as “✓”, the “Pharmacological Action: Intestinal Anti-prokinetic” value is recorded as “✓” and the “Pharmacological Action: Anti-epileptic” value is on record as “✓”. Moreover, in data set [1], the “Pharmacological Action: Vasorelaxant” value was “✓”, the “Pharmacological Action: Sedative” value is “✓”, the “Pharmacological Action: Immunosuppressive” value was “✓” and the “Pharmacological Action: Analgesic” value was “✓”. For the same compound, in data set [1], the “Pharmacological Action: Anti-spasmodic” value is reported as “✓”, the “Pharmacological Action: Anti-inflammatory” value is “✓”, the “Pharmacological Action: Anxiolytic” value is recorded as “✓” and the “Pharmacological Action: Neuroprotective” value was “✓”. In data set [2], the “Proposed mechanism, Analgesic” value is recorded as “(+)TRPA1”; the “Proposed mechanism, Anti-epileptic” value is given as “(+)5HT1A”; the “Proposed mechanism, Vasorelaxant” value is “(+)PPARg”. For the same compound, in data set [2] (Anti-psychotic), the “Proposed mechanism, Anti-psychotic” value is recorded as “(+)TRPV1”. In addition, the “Proposed mechanism, Anxiolytic” value in data set [2] (panic disorder) is “(+)5HT1A”. In data set [2] (social anxiety disorder), the “Proposed mechanism, Anxiolytic” value was “(+)CB1”. Further, the “Proposed mechanism, Intestinal Anti-prokinetic” value in data set [2] (Intestinal Anti-prokinetic) is given as “(−)Ca1”.

As to `C=C1CC/C=C(\C)CC[C@@H]2[C@@H]1CC2(C)C` [b-caryophyl.], the “Pharmacological Action: Anti-inflammatory” value in data set [1] is listed as “✓”. Moreover, in data set [2], the “Proposed mechanism, Anti-inflammatory” value was “PGE1”.
